In ChEMBL document CHEMBL1201862, “PubChem BioAssay data set” (2004):
Active and inactive are the calls of the source. Rule as the data show it, for most assays here: actives have a measured AC50 and inactives only a lower limit.

What was measured:
Paired box protein Pax-8 = Paired box protein Pax-8 (Homo sapiens, UniProt Q06710); test: inhibitors of PAX8-driven TPO luciferase reporter, dose response, RMG-I cells, cherry-pick (AID 687027); type: functional, cell-based;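 also: luciferase reporter driven by Pax8 target thyroperoxidase promoter measured by SteadyGlo luminescence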
[1] = cytotoxicity dependent on PAX8, dose response, cell-based, plate reader, dry powder (AID 743049); type: functional
[2] = PAX5 activity inhibitors, dose response, selectivity assay for PAX8 inhibitor project, cell-based, plate reader, dry powder samples (AID 743047); type: functional;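 also: HEK293 cells carrying a Pax5 driven CD19 promoter luciferase reporter; potency of inhibitors that lower reporter luminescence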
[3] = cytotoxicity in OV-90 ovarian cancer cells, dose response, PAX8 inhibitor project, cell-based, plate reader, dry powder, SA8 (AID 743149); type: functional
[4] = cytotoxicity in COV434 cells, dose response, cytotoxicity control for PAX8 inhibitor project, cell-based, plate reader, dry powder, SA7 (AID 743145); type: functional
[5] = P. falciparum Dd2 growth inhibitors, dose response, SYBR Green, dry powder samples (AID 1159566); type: functional, cell-based;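 also: potency for growth inhibition with lower SYBR green DNA signal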
[6] = P. falciparum Dd2 growth inhibitors, dose response, SYBR Green, cherry-picked samples (AID 1159567); type: functional, cell-based
[7] = HepG2 cell cytotoxicity, dose response, cytotoxicity control, plate reader, dry powder samples (AID 1159569); type: functional, cell-based;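 also: inhibitor potency with signal falling toward the positive control level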
[8] = P. falciparum ATP4 D1247Y mutant growth inhibitors, dose response, NITD609-resistant line, SYBR Green, dry powder (AID 1159571); type: functional, cell-based;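 also: parasites synchronized at ring stage by sorbitol before testing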
[9] = NIH:OVCAR-3 ovarian cancer cell cytotoxicity, dose response, PAX8 inhibitor project, plate reader, dry powder samples (AID 743044); type: functional, cell-based
[10] = cytotoxicity in OVCAR4 cells, dose response, cytotoxicity control for PAX8 inhibitor project, cell-based, plate reader, dry powder, SA11 (AID 743150); type: functional; details: OVCAR-4
[11] = P. falciparum 3D7-ScDHODH growth inhibitors, dose response, SYBR Green, dry powder samples (AID 1159570); type: functional, cell-based;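 also: parasite growth measured after 72 hours of compound exposure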
[12] = cytotoxicity in COV362 ovarian cancer cells, dose response, cytotoxicity control for PAX8 inhibitor project, cell-based, plate reader, dry powder, SA12 (AID 743144); type: functional
[13] = PAX2 cell-based inhibition, dose response, selectivity assay for PAX8 inhibitor project, plate reader, dry powder samples (AID 743048); type: functional;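 also: HEK293 cells carrying a WT1 promoter luciferase reporter driven by expressed Pax2; potency is for inhibition of Pax2 driven reporter signal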
[14] = HepG2 cell cytotoxicity, dose response, cytotoxicity control, cherry-picked samples (AID 1159577); type: functional, cell-based
[15] = T. cruzi intracellular amastigote growth inhibition, dose response, imaging, CA-I/72 strain, bovine embryo skeletal muscle, dry powder (AID 651885); type: functional, cell-based
[16] = growth inhibition of intracellular T. cruzi, dose response, cell-based, plate reader, dry powder samples (AID 651845); type: functional
[17] = T. cruzi growth inhibition in host cells, dose response, cell-based, plate reader, dry powder, set 2 (AID 652275); type: functional
[18] = CEM21 cell cytotoxicity, dose response, cytotoxicity control, plate reader, dry powder (AID 687026); type: functional, cell-based
[19] = HEK293 cell cytotoxicity, dose response, cytotoxicity control, cherry-picks, set 5 (AID 1053117); type: functional, cell-based
[20] = inhibitors of fibronectin matrix deposition, dose response, AH1F cells, Alexa488-FN fluorescence, cherry-picks (AID 1035475); type: functional, cell-based
[21] = Late stage assay provider results from the probe development effort to identify selective inhibitors of heat shock protein 90 (HSP90): Absorbance-based cell proliferation assay in SKBR3 cells.; type: functional; details: SK-BR-3
[22] = Late stage assay provider results from the probe development effort to identify selective inhibitors of heat shock protein 90 (HSP90): Absorbance-based cell proliferation assay in MCF7 cells.; type: functional

Paired box protein Pax-8, sequence (Q06710 whole entry): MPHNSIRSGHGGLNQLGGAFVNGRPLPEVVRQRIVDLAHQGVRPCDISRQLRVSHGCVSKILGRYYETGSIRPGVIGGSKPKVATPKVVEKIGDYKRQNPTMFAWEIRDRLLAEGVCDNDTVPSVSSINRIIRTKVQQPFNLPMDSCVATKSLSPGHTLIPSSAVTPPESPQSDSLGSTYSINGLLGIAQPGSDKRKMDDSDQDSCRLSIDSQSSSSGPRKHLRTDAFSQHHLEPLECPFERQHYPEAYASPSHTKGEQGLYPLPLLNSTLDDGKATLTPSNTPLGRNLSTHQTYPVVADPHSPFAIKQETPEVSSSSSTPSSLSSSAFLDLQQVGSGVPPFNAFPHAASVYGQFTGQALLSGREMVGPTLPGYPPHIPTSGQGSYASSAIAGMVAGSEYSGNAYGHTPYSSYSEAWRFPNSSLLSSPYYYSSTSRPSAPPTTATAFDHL

COc1cccc(C#Cc2ccc([C@H]3[C@@H](CO)N(C(=O)C4CCCCC4)[C@H]3C#N)cc2)c1
active: AC50 (Paired box protein Pax-8) 3.39 µM | AC50 [1] 8.27 µM | AC50 [2] 11.9 µM | AC50 [3] 24.7 µM | AC50 [4] 17.4 µM | AC50 [5] 1.21 µM | AC50 [6] 0.833 µM | AC50 [7] 46.6 µM | AC50 [8] 2.15 µM | AC50 [9] 46.6 µM | AC50 [10] 7.73 µM | AC50 [11] 1.86 µM | AC50 [12] 23.2 µM | AC50 [13] 16.8 µM | AC50 [14] 36.2 µM

CCCn1ncc(CN(C)C[C@H]2Oc3c(NC(=O)c4ccncc4)cccc3C(=O)N(C(C)C)C[C@@H]2C)c1C
inconclusive: IC50 [15] 2.92 µM
active: AC50 [16] 0.521 µM | AC50 [17] 0.521 µM

CCOc1ccc(S(=O)(=O)NC(C)c2ccncc2)cc1 (stereo not drawn)
inactive: AC50 [18] > 70 µM

C[C@@H]1CN([C@@H](C)CO)C(=O)c2cc(NC(=O)C3CCCCC3)ccc2O[C@@H]1CN(C)Cc1ccc(-c2ccccc2)cc1
inactive: AC50 [19] > 52 µM | AC50 [20] > 70 µM

O=C1OC(=O)/C(=C\NCCc2ccccc2)C=C1Br
active: IC50 [21] 3.7 µM | IC50 [22] 2.1 µM
